Columns and labels:
[1] = biological target: exon 20 T790M mutant-type EGFR enzyme (Homo sapiens, UniProt P00533, T790M); test: Enzymologic experiment of T790M mutant-type EGFR (TR-FRET); format: biochemical; conditions: for IC50: T790M EGFR enzyme, TR-FRET, ATP 1 to 10 uM; for Selectivity of wild-type/mutant-type: ratio WT IC50 / T790M IC50, enzyme
Description: (§1) 2) 1 to 5 μL of diluted solution in gradient of the compound was added.
(§2) 3) The mixture was incubated for 10 minutes at room temperature.
(§3) 6) 5 μL of EDTA stop solution was added to terminate the reaction for 5 minutes.
7) […] of a test solution containing the labeled antibody was added, and the mixture was incubated at room temperature for 1 hour.
9) The inhibition rates were calculated according to the fluorescence signal values.
(§4) 10) The IC50 of the compound was obtained by curve fitting according to the inhibition rates at different concentrations.

wild-type EGFR enzyme = wild-type EGFR enzyme (Homo sapiens, UniProt P00533); test: Enzymologic experiment of wild-type (WT) EGFR (TR-FRET); format: biochemical; conditions: ATP 0.1 to 5 uM
Description: 2. Enzymologic Experiment of Wild-Type (WT) EGFR
In this experiment, the inhibitory effect of compounds on wild-type EGFR enzyme was tested by a fluorescence resonance energy transfer (TR-FRET) method, and the half maximal inhibitory concentration IC50 of the compounds on enzymatic activity was determined.
1) 1 to 5 μL of wild-type EGFR enzyme solution was added to a 384-well plate, and the final concentration of the enzyme was 0.1 to 1 nM.
as §1, §2, §3
7) 5 μL of a test solution containing the labeled antibody was added, and the mixture was incubated at room temperature for 1 hour.
9) The inhibition rates were calculated from the fluorescence signal values.
as §4

NCI-H1975 cells = test: Inhibition of NCI-H1975 cell proliferation (CellTiter-Glo); format: cell-based; conditions: for IC50: Homo sapiens, NCI-H1975, 72 h, NCI-H1975 cell proliferation, 72 hours, CellTiter-Glo, read-out: EGFR IC50 (nM) H1975; for Selectivity of wild-type/mutant-type: ratio A431 IC50 / H1975 IC50, cells
Description: 3. Experiment on the Inhibition of NCI-H1975 Cell Proliferation
In this experiment, the inhibitory effect of the compounds on NCI-H1975 cell proliferation was tested by a CellTiter-Glo method, and the half maximal inhibitory concentration (IC50) of the compounds on the activity of cell proliferation was determined.
The culture plate was incubated in an incubator for 16 to 24 hours (37° C., 5% CO2).
(§5) 2) Different concentrations of the test compound in a gradient dilution were added to the cells in the culture plate. The culture plate was incubated in an incubator for 72 hours (37° C., 5% CO2).
3) 50 to 100 μL of CellTiter-Glo reagent was added to each well. Then, the culture plate was shaken for 10 minutes, and left to stand at room temperature for 10 minutes.
(§6) 4) The chemiluminescence signal values of each plate were determined by a microplate reader.
5) The inhibition rates were calculated according to the chemiluminescence signal values.
6) The IC50 of the compound was obtained by curve fitting according to the inhibition rates at different concentrations.

A431 cells = test: Inhibition of A431 cell proliferation (CellTiter-Glo); format: cell-based; conditions: Homo sapiens, A-431, 72 h, read-out: EGFR IC50 (nM) A431
Description: 4. Experiment on the Inhibition of A431 Cell Proliferation
In this experiment, the inhibitory effect of the compounds on A431 cell proliferation was tested by a CellTiter-Glo method, and the half maximal inhibitory concentration (IC50) of the compounds on the activity of cell proliferation was determined.
The culture plate was incubated in the incubator for 16 to 24 hours (37° C., 5% CO2).
as §5
3) 50 to 100 μL of CellTiter-Glo reagent was added to each well. Then the culture plate was shaken for 10 minutes, and left to stand at room temperature for 10 minutes.
as §6
5) The inhibition rates were calculated according to the chemiluminescence signal values. 6) The IC50 of the compound was obtained by curve fitting according to the inhibition rates at different concentrations.

Sequence of wild-type EGFR enzyme (P00533 25-1210): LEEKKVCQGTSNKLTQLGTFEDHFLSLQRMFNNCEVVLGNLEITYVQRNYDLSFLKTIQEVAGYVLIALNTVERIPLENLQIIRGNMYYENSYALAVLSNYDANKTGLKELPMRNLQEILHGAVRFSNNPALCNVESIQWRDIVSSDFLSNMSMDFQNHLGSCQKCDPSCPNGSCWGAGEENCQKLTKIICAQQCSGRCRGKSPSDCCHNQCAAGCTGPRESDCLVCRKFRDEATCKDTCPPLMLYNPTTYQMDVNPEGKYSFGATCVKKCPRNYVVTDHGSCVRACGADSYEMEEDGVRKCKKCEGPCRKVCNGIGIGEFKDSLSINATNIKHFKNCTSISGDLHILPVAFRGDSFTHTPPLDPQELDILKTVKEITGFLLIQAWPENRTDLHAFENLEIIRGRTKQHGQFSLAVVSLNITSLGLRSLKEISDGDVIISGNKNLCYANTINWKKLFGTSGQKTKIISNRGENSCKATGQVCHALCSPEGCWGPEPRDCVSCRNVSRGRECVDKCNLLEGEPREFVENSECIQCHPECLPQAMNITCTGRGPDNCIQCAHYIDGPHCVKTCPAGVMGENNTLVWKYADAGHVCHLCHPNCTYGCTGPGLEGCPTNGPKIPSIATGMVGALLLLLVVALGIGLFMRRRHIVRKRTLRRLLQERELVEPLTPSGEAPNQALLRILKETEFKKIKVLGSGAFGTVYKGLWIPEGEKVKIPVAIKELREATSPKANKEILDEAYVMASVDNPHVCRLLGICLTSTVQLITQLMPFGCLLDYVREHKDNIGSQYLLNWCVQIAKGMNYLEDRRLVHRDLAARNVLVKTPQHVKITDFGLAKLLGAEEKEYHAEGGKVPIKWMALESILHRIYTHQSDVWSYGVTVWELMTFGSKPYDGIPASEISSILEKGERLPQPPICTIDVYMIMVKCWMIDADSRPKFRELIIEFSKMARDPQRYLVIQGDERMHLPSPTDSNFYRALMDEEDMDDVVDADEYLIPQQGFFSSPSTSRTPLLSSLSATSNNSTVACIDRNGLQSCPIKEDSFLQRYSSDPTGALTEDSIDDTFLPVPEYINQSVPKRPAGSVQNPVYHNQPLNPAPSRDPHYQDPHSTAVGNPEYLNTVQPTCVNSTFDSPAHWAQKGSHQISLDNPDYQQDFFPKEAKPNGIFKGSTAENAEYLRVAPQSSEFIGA
Sequence of exon 20 T790M mutant-type EGFR enzyme (P00533 25-1210 T790M): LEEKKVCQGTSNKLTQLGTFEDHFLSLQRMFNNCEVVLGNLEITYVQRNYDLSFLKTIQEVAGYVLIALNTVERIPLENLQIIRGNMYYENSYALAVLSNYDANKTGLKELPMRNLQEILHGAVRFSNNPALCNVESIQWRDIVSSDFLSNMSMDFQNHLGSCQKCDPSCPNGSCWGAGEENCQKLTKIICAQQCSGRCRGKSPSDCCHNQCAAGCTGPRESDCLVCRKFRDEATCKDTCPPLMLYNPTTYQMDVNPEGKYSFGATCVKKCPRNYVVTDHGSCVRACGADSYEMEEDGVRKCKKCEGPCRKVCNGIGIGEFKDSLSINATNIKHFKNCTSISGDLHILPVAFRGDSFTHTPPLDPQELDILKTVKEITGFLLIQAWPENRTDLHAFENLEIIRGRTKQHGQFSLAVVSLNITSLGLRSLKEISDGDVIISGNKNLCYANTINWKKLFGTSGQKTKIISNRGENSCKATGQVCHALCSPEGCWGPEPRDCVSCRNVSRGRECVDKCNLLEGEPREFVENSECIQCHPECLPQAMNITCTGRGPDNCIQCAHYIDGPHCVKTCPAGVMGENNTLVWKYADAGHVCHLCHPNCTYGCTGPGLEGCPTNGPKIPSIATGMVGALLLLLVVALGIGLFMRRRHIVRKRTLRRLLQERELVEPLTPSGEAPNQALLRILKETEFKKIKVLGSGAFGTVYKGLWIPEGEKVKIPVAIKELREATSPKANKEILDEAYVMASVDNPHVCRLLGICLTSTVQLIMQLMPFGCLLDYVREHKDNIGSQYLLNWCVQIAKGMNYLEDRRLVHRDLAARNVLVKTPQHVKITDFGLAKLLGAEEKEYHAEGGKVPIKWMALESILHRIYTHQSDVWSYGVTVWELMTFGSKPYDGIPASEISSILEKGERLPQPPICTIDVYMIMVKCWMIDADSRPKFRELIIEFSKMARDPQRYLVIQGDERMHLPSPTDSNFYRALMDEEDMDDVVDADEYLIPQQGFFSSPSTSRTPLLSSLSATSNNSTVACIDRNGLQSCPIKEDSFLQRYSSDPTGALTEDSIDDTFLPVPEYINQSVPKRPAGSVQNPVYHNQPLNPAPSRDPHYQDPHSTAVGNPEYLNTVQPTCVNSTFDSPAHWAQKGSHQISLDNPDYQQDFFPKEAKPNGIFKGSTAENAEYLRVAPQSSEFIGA

Compound | IC50 [1] [nM] | Selectivity of wild-type/mutant-type [1] | IC50 (wild-type EGFR enzyme) [nM] | IC50 (NCI-H1975 cells) [nM] | IC50 (A431 cells) [nM] | Selectivity of wild-type/mutant-type (NCI-H1975 cells)
C=CC(=O)Nc1cc(Nc2nccc(-c3cn(S(=O)(=O)N(C)C)c4ccccc34)n2)c(OC(F)F)cc1N(C)CCN(C)C [Example 21, N-(4-(difluoromethoxy)-2-((2-(dimethylamino)ethyl)(methyl)amino)-5-((4-(1-(N,N-dimethylsulfamoyl)-1H-indol-3-yl)pyrimidin-2-yl)amino)phenyl)acrylamide] | 0.3 | 1.33 | 0.4 | 3.23 | 70.8 | 21.93
C=CC(=O)Nc1cc(Nc2nccc(-n3ncc4ccccc43)n2)c(OC)cc1N(C)CCN(C)C [Example 40, N-(5-((4-(1H-indazol-1-yl)pyrimidin-2-yl)amino)-2-((2-(dimethylamino)ethyl)(methyl)amino)-4-methoxyphenyl)acrylamide] | 0.39 | 8.62 | 3.36 | 1.95 | 339 | 174.05
C=CC(=O)Nc1cc(Nc2nccc(-n3ncc4c(OC)cccc43)n2)c(OC)cc1N(C)CCN(C)C [Example 41, N-(2-((2-(dimethylamino)ethyl)(methyl)amino)-4-methoxy-5-((4-(4-methoxy-1H-indazol-1-yl)pyrimidin-2-yl)amino)phenyl)acrylamide] | 0.51 | 4.90 | 2.5 | 5.93 | 138 | 23.36
C=CC(=O)Nc1cc(Nc2nccc(-n3nc(C4CC4)c4ccccc43)n2)c(OC)cc1N(C)CCN(C)C [Example 44, N-(5-((4-(3-cyclopropyl-1H-indazol-1-yl)pyrimidin-2-yl)amino)-2-((2-(dimethylamino)ethyl)(methyl)amino)-4-methoxyphenyl)acrylamide] | 0.38 | 6.58 | 2.5 | 7.13 | 406 | 56.93
C=CC(=O)Nc1cc(Nc2ncc(C(F)(F)F)c(-n3ncc4cc(OC)ccc43)n2)c(OC)cc1N(C)CCN(C)C [Example 49, N-(2-((2-(dimethylamino)ethyl)(methyl)amino)-4-methoxy-5-((4-(5-methoxy-1H-indazol-1-yl)-5-(trifluoromethyl)pyrimidin-2-yl)amino)phenyl)acrylamide] | 0.17 | 37.06 | 6.3 | 1.93 | 128 | 66.48
C=CC(=O)Nc1cc(Nc2nccc(-n3ncc4cc(C#N)ccc43)n2)c(OC)cc1N(C)CCN(C)C [Example 50, N-(5-((4-(5-cyano-1H-indazol-1-yl)pyrimidin-2-yl)amino)-2-((2-(dimethylamino)ethyl)(methyl)amino)-4-methoxyphenyl)acrylamide] | 0.66 | 9.68 | 6.39 | 6.14 | 503 | 81.87
C=CC(=O)Nc1cc(Nc2ncc(Cl)c(-n3ncc4cc(C#N)ccc43)n2)c(OC)cc1N(C)CCN(C)C [Example 51, N-(5-((5-chloro-4-(5-cyano-1H-indazol-1-yl)pyrimidin-2-yl)amino)-2-((2-(dimethylamino)ethyl)(methyl)amino)-4-methoxyphenyl)acrylamide] | 0.53 | 27.56 | 14.5 | 5.06 | 394 | 77.94
C=CC(=O)Nc1cc(Nc2nccc(-n3nc(C)c4cc(OC)c(OC)cc43)n2)c(OC)cc1N(C)CCN(C)C [Example 53, N-(5-((4-(5,6-dimethoxy-3-methyl-1H-indazol-1-yl)pyrimidin-2-yl)amino)-2-((2-(dimethylamino)ethyl)(methyl)amino)-4-methoxyphenyl)acrylamide] | 2.53 | 13.50 | 34.1 | 20 | 628 | 31.38

Continued, in another order:

IC50 [1] [nM] | Selectivity of wild-type/mutant-type [1] | IC50 (wild-type EGFR enzyme) [nM] | IC50 (NCI-H1975 cells) [nM] | IC50 (A431 cells) [nM] | Compound | Selectivity of wild-type/mutant-type (NCI-H1975 cells)
0.71 | 10.4 | 7.44 | 13.2 | 800 | C=CC(=O)Nc1cc(Nc2nccc(-c3cn(C)c4cc(C5CC5)ccc34)n2)c(OC)cc1N(C)CCN(C)C [Example 22, N-(5-((4-(6-cyclopropyl-1-methyl-1H-indol-3-yl)pyrimidin-2-yl)amino)-2-((2-(dimethylamino)ethyl)(methyl)amino)-4-methoxyphenyl)acrylamide] | 60.6
3.53 | 1.1 | 4.02 | 8.62 | 453 | C=CC(=O)Nc1cc(Nc2nccc(-c3cn(C)c4ccc(OC)cc34)n2)c(OC)cc1N(C)CCN(C)C [Example 24, N-(2-((2-(dimethylamino)ethyl)(methyl)amino)-4-methoxy-5-((4-(5-methoxy-1-methyl-1H-indol-3-yl)pyrimidin-2-yl)amino)phenyl)acrylamide] | 52.59
0.36 | 19.9 | 7.11 | 4.56 | 93.2 | C=CC(=O)Nc1cc(Nc2nccc(-c3cn(C)c4cc(OC)ccc34)n2)c(OC)cc1N(C)CCN(C)C [Example 25, N-(2-((2-(dimethylamino)ethyl)(methyl)amino)-4-methoxy-5-((4-(6-methoxy-1-methyl-1H-indol-3-yl)pyrimidin-2-yl)amino)phenyl)acrylamide] | 20.45
1.83 | 1.0 | 1.89 | 6.4 | 272 | C=CC(=O)Nc1cc(Nc2nccc(-c3cn(C)c4cc(F)c(F)cc34)n2)c(OC)cc1N(C)CCN(C)C [Example 28, N-(5-((4-(5,6-difluoro-1-methyl-1H-indol-3-yl)pyrimidin-2-yl)amino)-2-((2-(dimethylamino)ethyl)(methyl)amino)-4-methoxyphenyl)acrylamide] | 42.52
0.48 | 1.71 | 0.82 | 5 | 76.3 | C=CC(=O)Nc1cc(Nc2nccc(-n3ncc4ccc(OC)cc43)n2)c(OC)cc1N(C)CCN(C)C [Example 42, N-(2-((2-(dimethylamino)ethyl)(methyl)amino)-4-methoxy-5-((4-(6-methoxy-1H-indazol-1-yl)pyrimidin-2-yl)amino)phenyl)acrylamide] | 15.25
0.24 | 10.5 | 2.52 | 1.75 | 102 | C=CC(=O)Nc1cc(Nc2ncc(Cl)c(-n3ncc4cc(OC)ccc43)n2)c(OC)cc1N(C)CCN(C)C [Example 48, N-(5-((5-chloro-4-(5-methoxy-1H-indazol-1-yl)pyrimidin-2-yl)amino)-2-((2-(dimethylamino)ethyl)(methyl)amino)-4-methoxyphenyl)acrylamide] | 58.06
0.36 | 6.14 | 2.21 | 2.75 | 71.2 | C=CC(=O)Nc1cc(Nc2nccc(-n3nc(C)c4ccc(OC)cc43)n2)c(OC)cc1N(C)CCN(C)C [Example 54, N-(2-((2-(dimethylamino)ethyl)(methyl)amino)-4-methoxy-5-((4-(6-methoxy-3-methyl-1H-indazol-1-yl)pyrimidin-2-yl)amino)phenyl)acrylamide] | 25.90

From patent US10428081B2, “EGFR inhibitor, preparation method and use thereof” (Shanghai Hansoh Biomedical Co., Ltd., priority 2014, dated 2019)
